Laboratory results from patent publication US20060194268A1, “Method for measuring spinorphin” (priority 2005, published 2006).
No end group written: not given here.

Columns and labels:
[1] = system: spinorphin rabbit antibody; assay: Competitive enzyme immunoassay, cross reactivity of spinorphin analogues; assay type: binding; details: for detection by the method of the present invention (reaction with spinorphin antibody): analogue as competitive compound for immobilized spinorphin; for IC50: competition with spinorphin immobilized on plate for spinorphin rabbit antibody; for Cross reactivity: ratio of spinorphin relative to IC50
in vitro = details: bovine, cerebrospinal or other body fluid
Method: A test was carried out to confirm whether the activity of spinorphin could be retained through the period from the step (B) to the step (E). Spinorphin (1 μg/mL) in TBS was dissolved in bovine cerebrospinal fluid. The cerebrospinal fluid was allowed to stand at room temperature for various time periods. The reaction was stopped, and the amount of spinorphin was measured according to the method mentioned in the above (2).

Substance: LVVYP [spinorphin analogue]
- detection by the method of the present invention (reaction with spinorphin antibody) [1]: could not be detected

Substance: LVVYPW [spinorphin analogue]
- detection by the method of the present invention (reaction with spinorphin antibody) [1]: could not be detected

Substance: LVVYPWT [Spinorphin, Leu-Val-Val-Tyr-Pro-Trp-Thr]
- IC50 [1]: 0.00064 ± 0.00061 µg/mL
- Cross reactivity [1]: 1
- remaining at 1 h, 1 μg/mL (in vitro): 98.8 ± 0.98%

Substance: Pro-Trp-Thr [PWT]
- detection by the method of the present invention (reaction with spinorphin antibody) [1]: could not be detected

Substance: VVYP [spinorphin analogue]
- detection by the method of the present invention (reaction with spinorphin antibody) [1]: could not be detected

Substance: VVYPW [tynorphin]
- detection by the method of the present invention (reaction with spinorphin antibody) [1]: could not be detected

Substance: VVYPWT
- IC50 [1]: 1.6 ± 5 µg/mL
- Cross reactivity [1]: 0.0004

Substance: VYP
- detection by the method of the present invention (reaction with spinorphin antibody) [1]: could not be detected

Substance: VYPW [spinorphin analogue]
- detection by the method of the present invention (reaction with spinorphin antibody) [1]: could not be detected

Substance: VYPWT
- IC50 [1]: >10 µg/mL
- Cross reactivity [1]: <6.4 × 10^−5

Substance: YPW
- detection by the method of the present invention (reaction with spinorphin antibody) [1]: could not be detected

Substance: YPWT [hemorphin-4]
- detection by the method of the present invention (reaction with spinorphin antibody) [1]: could not be detected
